Tests used:
[1] = 7-day dose-range-finding toxicology in female rats
[2] = biological target: T1, Cav3.2 (Homo sapiens, UniProt O95180); test: Cav3.2 electrophysiology; assay type: cell-based; details: Vh=−80 mV
T1 construct: expressed in transfected cells

[3] = PN001/Part II: safety and tolerability; assay type: in vivo, human
Procedure: No serious adverse events were reported in the subjects who received CX-8998. One placebo-treated subject experienced a serious adverse event (peritonsillar abscess). The subject was admitted to the hospital for treatment with oral and intravenous antibiotics and was discontinued from the study because of this event. […] Each treatment period was separated from the previous one by an approximate 2-week washout, and all treatments were administered in the morning after an overnight fast. Electroencephalograms were recorded before and at selected time points for up to 24 hours after dosing in each treatment period. Cognitive and subjective assessments, including the Karolinska Sleepiness Scale and Bond-Lader visual analog scale, were also performed. 5.3.1.2.2 Pharmacodynamic Data Alpha rhythm is seen posterior brain regions in healthy adults during quiet wakefulness. It originates in the thalamus and is driven by Cav3 channel activity (Schreckenberger, 2004). Agitated, awake individuals may not display an alpha rhythm. […] Reductions in alpha power during the eyes closed position, were generally observed throughout the 24-hour postdose evaluation period for the 18 mg dose and were generally consistent across electrode sites.

[4] = test system: patients with essential tremor; test: T-CALM: PK/PD, Cmin versus TETRAS-PS (Hill equation); assay type: in vivo, human
Description: Pharmacodynamic variables (Response) evaluated included change from baseline in TETRAS performance subscale, TETRAS activities of daily living, TETRAS total score.

[5] = biological target: T2, hERG (Homo sapiens, UniProt Q12809); test: hERG PatchXpress assay; assay type: cell-based; details: doses up to 30 μM
T2 construct: expressed in transfected cells; host or cells: CHO-K1

[6] = biological target: T2, hERG; test: hERG whole-cell voltage-clamp (CHO-K1 cells); assay type: cell-based; details: hERG current
[7] = test system: CYP3A4 and CYP2C9; test: In vitro metabolism (liver microsomes, hepatocytes, recombinant CYPs, anti-CYP antibodies); assay type: in vitro ADME, human; details: 10 μM CX-8998
Description: Glucuronide conjugates of the oxygenated metabolites are detected in human, monkey, and dog hepatocyte preparations. […] However, the abundance of CYP3A5, CYP2C19, and CYP2D6 in human liver microsomes is low (2%-5%) relative to the primary contributors, CYP3A4 (˜30%) and CYP2C9 (˜20%). […] Information on reproductive and developmental toxicology was obtained in a 28-day pivotal female fertility study in rats and in preliminary embryo-fetal development studies in rats and rabbits.

[8] = PN005: safety and tolerability; assay type: in vivo, human
Description: The visual disturbances tended to cease with eye opening and to recur with eye closure and were generally not disturbing to the subjects. […] No serious adverse events were reported, and none of the subjects discontinued treatment because of an adverse event. […] 5.3.3.1.3.2 Other Safety Assessments No clinically significant trends in safety laboratory parameters or vital signs were observed. […] No changes of ≥60 msec from baseline occurred, and no subject has a QTc interval ≥500 msec. […] The most common adverse events were headache, vivid dreams, and visual and/or auditory disturbances or hallucinations (typically described as seeing geometric shapes, colors, lights, and/or movement and hearing tones like from a telephone or electronic music). […] Clinical safety was monitored throughout the study by adverse events, clinical laboratory tests, vital signs, ECGs, and ECG telemetry.

[9] = test system: T3, guinea pig adenosine transporter; test: Adenosine transporter inhibition; assay type: biochemical; details: 10 μM
T3 construct: other: 10 μM

[10] = human, CHO-K1 cells expressing hERG
[11] = single dose 8 mg, N = 7, middle-aged and elderly female subjects, Study PN005

T2 sequence (Q12809 whole entry): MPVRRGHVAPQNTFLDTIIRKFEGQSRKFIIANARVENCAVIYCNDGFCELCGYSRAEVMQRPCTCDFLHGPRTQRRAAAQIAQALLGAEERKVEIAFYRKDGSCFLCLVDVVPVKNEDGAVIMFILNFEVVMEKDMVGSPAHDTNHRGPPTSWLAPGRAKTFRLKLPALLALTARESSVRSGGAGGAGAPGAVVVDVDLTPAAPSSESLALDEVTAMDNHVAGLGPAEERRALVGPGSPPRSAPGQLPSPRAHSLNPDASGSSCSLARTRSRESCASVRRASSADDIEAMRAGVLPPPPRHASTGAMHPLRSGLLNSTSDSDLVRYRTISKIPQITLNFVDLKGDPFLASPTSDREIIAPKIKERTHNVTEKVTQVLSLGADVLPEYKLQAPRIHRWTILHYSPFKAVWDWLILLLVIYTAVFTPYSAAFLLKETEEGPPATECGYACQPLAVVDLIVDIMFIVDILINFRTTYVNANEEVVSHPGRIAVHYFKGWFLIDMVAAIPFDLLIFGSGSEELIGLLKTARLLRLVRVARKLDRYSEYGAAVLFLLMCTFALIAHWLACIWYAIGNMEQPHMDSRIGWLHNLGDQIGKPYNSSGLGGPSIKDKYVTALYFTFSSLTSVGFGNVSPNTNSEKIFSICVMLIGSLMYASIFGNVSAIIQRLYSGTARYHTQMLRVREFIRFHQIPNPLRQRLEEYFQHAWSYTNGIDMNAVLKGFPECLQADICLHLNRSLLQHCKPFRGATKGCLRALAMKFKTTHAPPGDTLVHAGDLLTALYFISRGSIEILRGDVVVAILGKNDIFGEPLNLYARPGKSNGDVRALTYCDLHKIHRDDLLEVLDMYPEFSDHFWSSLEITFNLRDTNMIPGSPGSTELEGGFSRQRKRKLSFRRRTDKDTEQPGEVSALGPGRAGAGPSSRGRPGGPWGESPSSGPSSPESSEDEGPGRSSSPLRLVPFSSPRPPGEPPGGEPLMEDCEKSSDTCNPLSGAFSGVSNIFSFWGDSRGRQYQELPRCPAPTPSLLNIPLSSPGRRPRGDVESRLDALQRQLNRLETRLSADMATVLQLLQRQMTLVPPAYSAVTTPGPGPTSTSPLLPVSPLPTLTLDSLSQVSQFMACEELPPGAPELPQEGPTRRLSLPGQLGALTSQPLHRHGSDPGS
T1 sequence (O95180 whole entry): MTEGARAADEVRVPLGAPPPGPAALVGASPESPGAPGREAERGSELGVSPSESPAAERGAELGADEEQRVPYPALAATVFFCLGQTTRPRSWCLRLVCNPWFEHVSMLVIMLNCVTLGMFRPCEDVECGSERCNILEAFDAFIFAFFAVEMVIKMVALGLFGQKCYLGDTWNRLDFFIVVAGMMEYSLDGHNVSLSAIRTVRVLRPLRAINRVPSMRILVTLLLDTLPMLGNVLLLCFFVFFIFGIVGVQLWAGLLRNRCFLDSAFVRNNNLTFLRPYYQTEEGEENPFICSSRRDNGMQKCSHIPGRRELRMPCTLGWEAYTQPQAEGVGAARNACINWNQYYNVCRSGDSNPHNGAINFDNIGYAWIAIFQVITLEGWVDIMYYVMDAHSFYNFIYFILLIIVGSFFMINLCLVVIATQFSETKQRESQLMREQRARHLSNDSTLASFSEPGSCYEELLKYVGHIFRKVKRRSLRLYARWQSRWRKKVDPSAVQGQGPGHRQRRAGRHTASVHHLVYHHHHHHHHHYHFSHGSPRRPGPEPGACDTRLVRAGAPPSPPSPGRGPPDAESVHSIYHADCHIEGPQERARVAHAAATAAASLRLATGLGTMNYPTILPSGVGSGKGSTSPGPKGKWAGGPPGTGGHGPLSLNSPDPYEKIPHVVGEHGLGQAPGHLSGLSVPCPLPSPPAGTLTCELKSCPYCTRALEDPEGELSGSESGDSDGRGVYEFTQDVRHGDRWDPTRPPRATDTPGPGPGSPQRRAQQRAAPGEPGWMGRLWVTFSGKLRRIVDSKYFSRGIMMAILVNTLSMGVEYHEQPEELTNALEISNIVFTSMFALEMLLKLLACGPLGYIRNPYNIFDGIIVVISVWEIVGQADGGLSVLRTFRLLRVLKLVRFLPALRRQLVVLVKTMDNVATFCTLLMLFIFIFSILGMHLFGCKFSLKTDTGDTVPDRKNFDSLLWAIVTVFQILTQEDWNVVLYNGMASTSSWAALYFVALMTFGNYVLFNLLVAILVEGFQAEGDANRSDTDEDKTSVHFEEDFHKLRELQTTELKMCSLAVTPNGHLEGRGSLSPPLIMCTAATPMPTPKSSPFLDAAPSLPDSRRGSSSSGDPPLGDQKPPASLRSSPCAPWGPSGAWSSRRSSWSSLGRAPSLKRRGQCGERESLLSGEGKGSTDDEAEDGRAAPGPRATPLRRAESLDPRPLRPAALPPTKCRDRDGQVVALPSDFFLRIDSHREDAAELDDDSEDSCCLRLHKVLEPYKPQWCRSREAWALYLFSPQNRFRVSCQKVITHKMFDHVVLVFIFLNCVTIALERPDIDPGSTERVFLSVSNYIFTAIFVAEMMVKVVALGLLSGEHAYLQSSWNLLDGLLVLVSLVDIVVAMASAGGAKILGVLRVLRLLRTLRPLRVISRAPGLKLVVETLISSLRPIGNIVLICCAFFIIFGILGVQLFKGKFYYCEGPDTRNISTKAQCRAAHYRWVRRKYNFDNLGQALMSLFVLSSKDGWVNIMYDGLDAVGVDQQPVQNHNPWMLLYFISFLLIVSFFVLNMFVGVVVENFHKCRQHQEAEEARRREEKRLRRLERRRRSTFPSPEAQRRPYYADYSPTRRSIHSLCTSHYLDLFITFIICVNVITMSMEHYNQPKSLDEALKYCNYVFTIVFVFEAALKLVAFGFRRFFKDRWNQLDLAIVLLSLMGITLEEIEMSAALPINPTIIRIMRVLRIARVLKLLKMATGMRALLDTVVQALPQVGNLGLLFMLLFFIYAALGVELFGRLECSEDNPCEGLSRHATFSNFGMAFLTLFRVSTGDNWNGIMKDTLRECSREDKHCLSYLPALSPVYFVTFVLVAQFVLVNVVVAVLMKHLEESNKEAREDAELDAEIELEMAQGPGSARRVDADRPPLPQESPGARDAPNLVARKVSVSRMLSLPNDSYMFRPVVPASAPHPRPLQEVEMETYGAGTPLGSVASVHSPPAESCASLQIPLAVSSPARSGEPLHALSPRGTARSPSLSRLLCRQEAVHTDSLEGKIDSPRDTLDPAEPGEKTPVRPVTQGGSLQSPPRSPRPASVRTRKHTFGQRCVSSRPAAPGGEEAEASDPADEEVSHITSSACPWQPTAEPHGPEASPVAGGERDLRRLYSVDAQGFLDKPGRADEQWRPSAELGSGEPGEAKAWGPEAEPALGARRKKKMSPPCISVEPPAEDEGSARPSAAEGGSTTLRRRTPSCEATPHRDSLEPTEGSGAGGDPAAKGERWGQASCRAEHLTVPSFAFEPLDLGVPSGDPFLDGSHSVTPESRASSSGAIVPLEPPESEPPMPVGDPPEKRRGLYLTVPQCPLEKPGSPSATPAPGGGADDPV

CC(C)c1ccc(CC(=O)N[C@H](C)c2ccc(OCC(F)(F)F)cn2)cc1 [CX-8998]
NOEL ([1]; Sprague-Dawley rat, 7-day exploratory toxicity, oral gavage): 500 mg/kg/day | findings indicative of dose-limiting toxicity ([1]; Sprague-Dawley rat, 10, 100, or 500 mg/kg/day oral gavage for 7 days): No findings | IC50 [2]: 0.096 µM | At least 1 adverse event ([3]; 5 mg): 8 (66.7) n (%) | Dizziness ([3]; 5 mg): 1 (8.3) n (%) | Drowsiness ([3]; 5 mg): 3 (25.0) n (%) | Euphoric mood ([3]; 5 mg): 1 (8.3) n (%) | Feeling of relaxation ([3]; 5 mg): 1 (8.3%) n (%) | Floating feeling ([3]; 5 mg): 1 (8.) n (%) | Gastrointestinal Disorders ([3]; 5 mg): 2 (16.7) n (%) | Headache ([3]; 5 mg): 1 (8.3) n (%) | Intermittent headache ([3]; 5 mg): 0 n (%) | Nausea ([3]; 5 mg): 2 (16.7) n (%) | Nervous System Disorders ([3]; 5 mg): 4 (33.3) n (%) | Psychiatric Disorders ([3]; 5 mg): 4 (33.3) n (%) | Sleep disturbance ([3]; 5 mg): 1 (8.3) n (%) | Vivid dreams ([3]; 5 mg): 2 (16.7) n (%) | At least 1 adverse event ([3]; 18 mg): 11 (91.7) n (%) | Dizziness ([3]; 18 mg): 3 (25.0) n (%) | Drowsiness ([3]; 18 mg): 3 (25.0) n (%) | Euphoric mood ([3]; 18 mg): 3 (25.0) n (%) | Feeling of relaxation ([3]; 18 mg): 3 (25.0) n (%) | Floating feeling ([3]; 18 mg): 1 (8.3) n (%) | Gastrointestinal Disorders ([3]; 18 mg): 1 (8.3) n (%) | Headache ([3]; 18 mg): 3 (25.0) n (%) | Intermittent headache ([3]; 18 mg): 2 (16.7) n (%) | Nausea ([3]; 18 mg): 1 (8.3) n (%) | Nervous System Disorders ([3]; 18 mg): 8 (66.7) n (%) | Psychiatric Disorders ([3]; 18 mg): 6 (50.0) n (%) | Sleep disturbance ([3]; 18 mg): 2 (16.7) n (%) | Vivid dreams ([3]; 18 mg): 2 (16.7) n (%) | Tolerability ([3]; single doses of 5 and 18 mg): generally well tolerated | Emax, change from baseline in TETRAS-PS ([4]; Cmin at steady state): approximately −4.1 | EC50 ([4]; Homo sapiens, TETRAS-PS): ~0.25 µM | IC50 [5]: 28 µM | IC20 [5, 10]: 8.7 µM | IC50 [6]: 21 µM | IC20 [6, 10]: 4 µM | Inhibition of metabolism by antihuman CYP3A and CYP2C antibodies [7]: > 90% | Tolerability ([8]; single 8 mg dose): well tolerated | Alanine aminotransferase increased [8, 11]: 1 (14.3) n (%) | At least 1 adverse event [8, 11]: 6 (85.7) n (%) | Dry mouth [8, 11]: 1 (14.3) n (%) | Eye Disorders [8, 11]: 1 (14.3) n (%) | Gastrointestinal Disorders [8, 11]: 3 (42.9) n (%) | Hot flush [8, 11]: 1 (14.3) n (%) | Hypoaesthesia oral [8, 11]: 1 (14.3) n (%) | Inappropriate laughter [8, 11]: 2 (28.6) n (%) | Infections and Infestations [8, 11]: 1 (14.3) n (%) | Investigations [8, 11]: 1 (14.3) n (%) | Irritability [8, 11]: 1 (14.3) n (%) | Nausea [8, 11]: 1 (14.3) n (%) | Nervousness [8, 11]: 1 (14.3) n (%) | Psychiatric Disorders [8, 11]: 4 (57.1) n (%) | Racing thoughts [8, 11]: 1 (14.3) n (%) | Shingles [8, 11]: 1 (14.3) n (%) | Vascular Disorders [8, 11]: 1 (14.3) n (%) | Vision blurred [8, 11]: 1 (14.3) n (%) | Vomiting [8, 11]: 1 (14.3) n (%)

C=C(C)c1ccc(CC(=O)N[C@H](C)c2ccc(OCC(F)(F)F)cn2)cc1 [M01]
Inhibition [9]: 79%
